Experimental data from patent US20260217767A1, “NOVEL A4B7 THIOETHER PEPTIDE DIMER ANTAGONISTS” (Protagonist Therapeutics, Inc., priority 2014, published 2026).
*1 amine or outer side, *2 acyl side, *3 side chain or, on linkers, in order; H or OH if unused. Where a SMILES comes first, the peptide text is derived from it. Bridges are numbered along the chain shown (N, C = ends). Roman numbers before positions name the chains, in order. [ ]: non-standard residue; d: D form. Bip = N[C@@H](Cc1ccc(-c2ccccc2)cc1)C(=O)O; 1Nal = N[C@@H](Cc1cccc2ccccc12)C(=O)O; Diglycolyl = O=C(COCC(=O)[*:2])[*:1]; NMeR = CN[C@@H](CCCNC(=N)N)C(=O)O; β3hE = N[C@@H](CCC(=O)O)CC(=O)O; X1 = O=C(c1ccccc1C[*:2])[*:1]; Pen = CC(C)(S)[C@H](N)C(=O)O

Experiments:
[1] = target: T1, α4β1 (Homo sapiens, UniProt P05556+P13612); assay: α4β1-VCAM Competition ELISA; assay type: binding; settings: thioether peptide dimers, Table 7; read-out: ELISA A4B1
T1 construct: purchased R&D Systems 5668-A4
T1 sequence (P13612 34-977 limits assumed): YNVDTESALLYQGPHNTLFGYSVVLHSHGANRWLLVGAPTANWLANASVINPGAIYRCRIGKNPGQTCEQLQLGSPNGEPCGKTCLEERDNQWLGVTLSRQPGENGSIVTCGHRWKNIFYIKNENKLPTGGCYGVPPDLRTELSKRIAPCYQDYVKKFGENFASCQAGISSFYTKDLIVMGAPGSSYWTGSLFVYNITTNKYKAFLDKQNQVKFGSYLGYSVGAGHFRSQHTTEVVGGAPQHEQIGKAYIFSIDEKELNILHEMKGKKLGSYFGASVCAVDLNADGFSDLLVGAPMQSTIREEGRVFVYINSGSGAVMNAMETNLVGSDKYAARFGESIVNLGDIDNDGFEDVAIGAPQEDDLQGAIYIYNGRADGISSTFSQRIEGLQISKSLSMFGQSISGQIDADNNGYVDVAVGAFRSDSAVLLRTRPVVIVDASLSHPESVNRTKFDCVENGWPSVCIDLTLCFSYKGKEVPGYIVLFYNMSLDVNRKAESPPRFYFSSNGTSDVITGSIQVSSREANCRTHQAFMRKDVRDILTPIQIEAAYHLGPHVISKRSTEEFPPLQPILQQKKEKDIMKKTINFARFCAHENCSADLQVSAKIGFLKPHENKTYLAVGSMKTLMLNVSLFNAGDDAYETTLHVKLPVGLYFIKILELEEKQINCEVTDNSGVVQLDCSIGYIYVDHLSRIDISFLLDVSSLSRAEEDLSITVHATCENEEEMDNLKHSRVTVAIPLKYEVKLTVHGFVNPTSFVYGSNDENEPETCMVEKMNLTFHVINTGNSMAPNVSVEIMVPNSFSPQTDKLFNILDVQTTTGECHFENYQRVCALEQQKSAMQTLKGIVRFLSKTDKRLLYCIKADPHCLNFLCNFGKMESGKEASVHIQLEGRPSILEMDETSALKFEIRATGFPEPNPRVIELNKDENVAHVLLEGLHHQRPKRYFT
T1 sequence (P05556 21-728 limits assumed): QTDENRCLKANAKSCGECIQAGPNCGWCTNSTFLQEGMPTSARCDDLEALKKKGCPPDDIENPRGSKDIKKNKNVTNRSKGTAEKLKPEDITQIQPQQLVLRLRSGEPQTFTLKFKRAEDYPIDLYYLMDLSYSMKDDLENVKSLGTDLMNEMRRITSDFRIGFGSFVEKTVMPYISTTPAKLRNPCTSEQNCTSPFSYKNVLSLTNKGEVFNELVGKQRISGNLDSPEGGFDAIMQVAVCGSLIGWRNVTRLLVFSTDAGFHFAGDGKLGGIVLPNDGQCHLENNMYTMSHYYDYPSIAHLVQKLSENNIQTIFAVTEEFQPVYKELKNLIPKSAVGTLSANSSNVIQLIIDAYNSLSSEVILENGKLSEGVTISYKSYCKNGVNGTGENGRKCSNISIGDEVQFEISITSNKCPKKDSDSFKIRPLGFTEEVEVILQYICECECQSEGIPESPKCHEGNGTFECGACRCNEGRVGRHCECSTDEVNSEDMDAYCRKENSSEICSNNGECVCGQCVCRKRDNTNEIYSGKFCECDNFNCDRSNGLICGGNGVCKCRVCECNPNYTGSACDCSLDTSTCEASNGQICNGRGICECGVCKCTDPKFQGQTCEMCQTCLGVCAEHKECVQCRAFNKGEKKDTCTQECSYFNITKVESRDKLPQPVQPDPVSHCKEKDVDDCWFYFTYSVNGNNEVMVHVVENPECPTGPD
Procedure, shortened: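 rh VCAM-1-Fc coated plates; α4β1 (final 60 nM) and peptide (final 100 μM) incubated 2 h at 37° C. in 50 mM Tris-HCl pH 7.6, 100 mM NaCl, 1 mM MnCl2 or MgCl2, 0.05% Tween-20. Bound integrin detected with anti-CD49d 9F10 and HRP anti-mouse IgG, TMB read at 450 nm.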

[2] = target: Jurkat E6.1 cells (Homo sapiens, UniProt P05556+P13612); assay: α4β1-VCAM Cell Adhesion Assay; assay type: cell-based; settings: thioether peptide dimers, Table 7; read-out: Cell Adhesion A4B1
Jurkat E6.1 cells, sequence (P13612 34-1032): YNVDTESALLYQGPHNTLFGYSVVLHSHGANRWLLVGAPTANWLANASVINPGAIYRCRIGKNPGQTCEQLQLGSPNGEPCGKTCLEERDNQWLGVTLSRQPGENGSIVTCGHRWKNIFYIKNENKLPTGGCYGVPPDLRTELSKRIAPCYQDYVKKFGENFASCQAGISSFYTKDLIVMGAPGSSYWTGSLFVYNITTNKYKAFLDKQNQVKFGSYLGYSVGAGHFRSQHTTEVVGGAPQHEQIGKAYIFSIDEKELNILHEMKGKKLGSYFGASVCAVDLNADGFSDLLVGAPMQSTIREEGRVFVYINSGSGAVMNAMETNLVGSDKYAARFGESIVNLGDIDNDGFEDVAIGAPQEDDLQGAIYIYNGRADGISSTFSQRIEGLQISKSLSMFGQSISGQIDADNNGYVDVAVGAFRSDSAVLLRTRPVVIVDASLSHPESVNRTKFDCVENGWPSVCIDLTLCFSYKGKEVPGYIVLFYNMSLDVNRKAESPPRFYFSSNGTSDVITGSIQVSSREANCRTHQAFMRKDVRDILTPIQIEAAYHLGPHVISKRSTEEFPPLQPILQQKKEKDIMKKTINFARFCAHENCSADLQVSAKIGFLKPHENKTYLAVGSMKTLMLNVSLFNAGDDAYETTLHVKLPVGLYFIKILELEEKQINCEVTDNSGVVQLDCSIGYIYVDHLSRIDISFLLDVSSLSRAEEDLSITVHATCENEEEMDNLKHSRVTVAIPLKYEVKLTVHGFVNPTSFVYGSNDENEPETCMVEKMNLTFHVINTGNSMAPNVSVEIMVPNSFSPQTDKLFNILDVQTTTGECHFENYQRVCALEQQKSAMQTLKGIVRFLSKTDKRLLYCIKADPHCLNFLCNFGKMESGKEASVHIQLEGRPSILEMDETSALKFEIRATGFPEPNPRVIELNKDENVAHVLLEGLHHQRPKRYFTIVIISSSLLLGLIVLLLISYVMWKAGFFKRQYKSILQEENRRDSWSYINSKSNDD
Jurkat E6.1 cells, sequence (P05556 21-798): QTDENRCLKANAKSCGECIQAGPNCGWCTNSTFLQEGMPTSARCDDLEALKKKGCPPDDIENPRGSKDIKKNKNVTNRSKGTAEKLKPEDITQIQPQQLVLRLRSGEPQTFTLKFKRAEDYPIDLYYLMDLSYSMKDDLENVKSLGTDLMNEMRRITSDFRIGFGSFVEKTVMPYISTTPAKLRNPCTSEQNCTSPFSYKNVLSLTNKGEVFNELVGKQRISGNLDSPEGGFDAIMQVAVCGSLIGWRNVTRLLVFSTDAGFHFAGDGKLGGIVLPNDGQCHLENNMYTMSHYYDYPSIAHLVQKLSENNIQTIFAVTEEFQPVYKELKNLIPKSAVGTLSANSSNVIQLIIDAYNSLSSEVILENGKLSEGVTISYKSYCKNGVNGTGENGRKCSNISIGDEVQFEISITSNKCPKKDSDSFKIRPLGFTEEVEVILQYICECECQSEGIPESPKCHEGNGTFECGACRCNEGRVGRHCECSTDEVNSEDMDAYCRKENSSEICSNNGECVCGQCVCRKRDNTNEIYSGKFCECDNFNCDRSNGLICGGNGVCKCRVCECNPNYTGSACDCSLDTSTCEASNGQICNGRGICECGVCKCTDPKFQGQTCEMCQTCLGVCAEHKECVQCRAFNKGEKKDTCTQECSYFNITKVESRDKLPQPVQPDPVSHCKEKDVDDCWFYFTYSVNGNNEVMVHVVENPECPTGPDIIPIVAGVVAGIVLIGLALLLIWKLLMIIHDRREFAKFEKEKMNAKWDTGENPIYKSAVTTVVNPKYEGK
Experimental: α4β1-VCAM Cell Adhesion Assay
Jurkat E6.1 cells (Sigma #88042803) were cultured in RPMI 1640 HEPES medium (Invitrogen #22400-089) supplemented with 10% serum (Fetal Bovine Serum, Invitrogen #16140-071), 1 mM sodium pyruvate (Invitrogen #11360-070), 2 mM L-glutamine (Invitrogen #25030-081) and Penicillin-Streptomycin (Invitrogen #15140-122) at 100 units of penicillin and 100 μg of streptomycin per ml. The cells were washed two times in DMEM medium (ATCC #30-2002) supplemented with 0.1% BSA, 10 mM HEPES pH 7 and 1 mM MnCl2. The cells were re-suspended in supplemented DMEM medium at a density of 4×10^6 cells/ml.
A Nunc MaxiSorp plate was coated with rh VCAM-1/CD106 Fc chimera (R&D #862-VC) at 400 ng per well in 50 μl per well in 1×PBS and incubated at 4° C. overnight. The solution was then removed by shaking, blocked with 250 μl per well PBS containing 1% BSA, and incubated at 37° C. for 1 hr. The solution was removed by shaking. Peptides were diluted by serial dilution in a final volume of 50 μl per well (2× concentration). To each well, 50 μl of cells (200,000 cells) were added and the plate was incubated at 37° C., 5% CO2 for 30-45 min to allow cell adhesion. The wells were washed manually three times (100 μl per wash) with supplemented DMEM. After the final wash, 100 μl/well of supplemented DMEM and 10 ul/well of MTT reagent (ATTC cat #30-1010K) were added. The plate was incubated at 37° C., 5% CO2 for 2-3 hrs until a purple precipitate is visible. 100 ul of Detergent Reagent (ATTC cat #30-1010K) is added to each well. The plate was covered from the light, wrapped in Parafilm to prevent evaporation, and left overnight at room temperature in the dark. The plate was shaken for 5 min and the absorbance at 570 nm is measured. To calculate the dose response, the absorbance value of control wells not containing cells was subtracted from each test well.

[3] = Simulated Intestinal Fluid (SIF) Stability Assay; assay type: in vitro ADME; settings: pig, 37° C., dimers, Table 7; for half-life: porcine pancreatin
Procedure, shortened: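 Percent peptide remaining over time was measured by LC-MS/MS as the peak-area ratio to internal standard, and a first-order decay fit gave half-life. Digests contained 22 μM peptide and 1% pancreatin in pH 6.5 FaSSIF buffer at 37° C. Aliquots were quenched in organic solvent with formic acid.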

| half-life at 22 μM ([3]; simulated intestinal fluid (SIF) with 1% porcine pancreatin, pH 6.5, porcine pancreatin) [h] | SMILES | IC50 [1] [nM] | IC50 [2] [nM] | half-life [3] [h] |
| --- | --- | --- | --- | --- |
| – | CC(C)C[C@@H]1NC(=O)[C@H]([C@@H](C)O)NC(=O)[C@H](CC(=O)O)NC(=O)[C@H](CO)NC(=O)[C@H](CCCNC(=N)N)N(C)C(=O)c2ccccc2CSC[C@H](C(=O)N[C@@H](Cc2c[nH]c3ccccc23)C(=O)N[C@@H](CCC(=O)O)CC(=O)N[C@H](CCCCNC(=O)COCC(=O)NCCCC[C@@H](NC(=O)C[C@H](CCC(=O)O)NC(=O)[C@H](Cc2c[nH]c3ccccc23)NC(=O)[C@H]2CSCc3ccccc3C(=O)N(C)[C@@H](CCCNC(=N)N)C(=O)N[C@@H](CO)C(=O)N[C@@H](CC(=O)O)C(=O)N[C@@H]([C@@H](C)O)C(=O)N[C@@H](CC(C)C)C(=O)N2)C(N)=O)C(N)=O)NC1=O [compound 156] (I: [NMeR]SDTL[dC]W[β3hE][dK]-NH2 / II: [NMeR]SDTL[dC]W[β3hE][dK]-NH2; linker I:9-II:9 via Diglycolyl; linker I:N-I:6, II:N-II:6 via X1) | 25 to 100 | > 100000 | > 3 |
| – | CC(C)C[C@@H]1NC(=O)[C@H]([C@@H](C)O)NC(=O)[C@H](CC(=O)O)NC(=O)[C@H](CO)NC(=O)[C@H](CCCNC(=N)N)N(C)C(=O)c2ccccc2CSC(C)(C)[C@@H](C(=O)N[C@@H](Cc2ccc(-c3ccccc3)cc2)C(=O)N[C@H](CCC(=O)O)C(=O)N[C@H](CCCCNC(=O)COCC(=O)NCCCC[C@@H](NC(=O)[C@@H](CCC(=O)O)NC(=O)[C@H](Cc2ccc(-c3ccccc3)cc2)NC(=O)[C@H]2NC(=O)[C@H](CC(C)C)NC(=O)[C@H]([C@@H](C)O)NC(=O)[C@H](CC(=O)O)NC(=O)[C@H](CO)NC(=O)[C@H](CCCNC(=N)N)N(C)C(=O)c3ccccc3CSC2(C)C)C(=O)O)C(=O)O)NC1=O [compound 208] (I: [NMeR]SDTL[Pen][Bip][dE][dK]-OH / II: [NMeR]SDTL[Pen][Bip][dE][dK]-OH; linker I:9-II:9 via Diglycolyl; linker I:N-I:6, II:N-II:6 via X1) | 25 to 100 | > 100000 | > 3 |
| > 3 | CC(C)C[C@@H]1NC(=O)[C@H]([C@@H](C)O)NC(=O)[C@H](CC(=O)O)NC(=O)[C@H](CO)NC(=O)[C@H](CCCNC(=N)N)N(C)C(=O)c2ccccc2CSC(C)(C)[C@@H](C(=O)N[C@@H](Cc2cccc3ccccc23)C(=O)N[C@H](CCC(=O)O)C(=O)N[C@H](CCCCNC(=O)COCC(=O)NCCCC[C@@H](NC(=O)[C@@H](CCC(=O)O)NC(=O)[C@H](Cc2cccc3ccccc23)NC(=O)[C@H]2NC(=O)[C@H](CC(C)C)NC(=O)[C@H]([C@@H](C)O)NC(=O)[C@H](CC(=O)O)NC(=O)[C@H](CO)NC(=O)[C@H](CCCNC(=N)N)N(C)C(=O)c3ccccc3CSC2(C)C)C(N)=O)C(N)=O)NC1=O [compound 158] (I: [NMeR]SDTL[Pen][1Nal][dE][dK]-NH2 / II: [NMeR]SDTL[Pen][1Nal][dE][dK]-NH2; linker I:9-II:9 via Diglycolyl; linker I:N-I:6, II:N-II:6 via X1) | 100 to 1000 | > 100000 | – |
| – | CC(C)C[C@@H]1NC(=O)[C@H]([C@@H](C)O)NC(=O)[C@H](CC(=O)O)NC(=O)[C@H](CO)NC(=O)[C@H](CCCNC(=N)N)N(C)C(=O)c2ccccc2CSC(C)(C)[C@@H](C(=O)N[C@@H](Cc2ccccc2)C(=O)N[C@H](CCC(=O)O)C(=O)N[C@H](CCCCNC(=O)COCC(=O)NCCCC[C@@H](NC(=O)[C@@H](CCC(=O)O)NC(=O)[C@H](Cc2ccccc2)NC(=O)[C@H]2NC(=O)[C@H](CC(C)C)NC(=O)[C@H]([C@@H](C)O)NC(=O)[C@H](CC(=O)O)NC(=O)[C@H](CO)NC(=O)[C@H](CCCNC(=N)N)N(C)C(=O)c3ccccc3CSC2(C)C)C(=O)O)C(=O)O)NC1=O [compound 204] (I: [NMeR]SDTL[Pen]F[dE][dK]-OH / II: [NMeR]SDTL[Pen]F[dE][dK]-OH; linker I:9-II:9 via Diglycolyl; linker I:N-I:6, II:N-II:6 via X1) | 100 to 1000 | > 100000 | > 3 |
